# According to patent publication US10947252B2, “Inhibitors of KEAP1-Nrf2 protein-protein interaction” (Janssen Pharmaceutica NV, priority 2018, dated 2021):
# Tested on: Glo-Response ARE-luc2P HEK293 cell line
# Assay: ARE luciferase reporter cell-based assay;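 also: luciferase signal tracks Nrf2 activation of the ARE once compounds disrupt KEAP1-Nrf2 binding, read with One-Glo reagent, DMSO serving as low control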
# Settings: 24 hours, average of results obtained
row,SMILES,EC50
1,"Cc1ccc(C(c2ccn3c(C(F)(F)F)nnc3c2C)C(C)C(=O)O)cc1CN1C[C@@H]2CCCCN2c2ncccc2S1(=O)=O (stereo in doubt) [Example 129, 3-(3-(((*S)-5,5-Dioxido-7,7a,8,9,10,11-hexahydro-6H-dipyrido[2,1-d:2′,3′-f][1,2,5]thiadiazepin-6-yl)methyl)-4-methylphenyl)-2-methyl-3-(8-methyl-3-(trifluoromethyl)-[1,2,4]triazolo[4,3-a]pyridine-7-yl)propanoic Acid]",6.8 nM

# Same assay, conditions: Homo sapiens, HEK293, 24 h, average of results obtained
row,SMILES,EC50
1,"Cc1ccc([C@@H](c2ccn3c(C(F)F)nnc3c2C)C(C)(C)C(=O)O)cc1CN1CC2(CC2)Oc2ncccc2S1(=O)=O (single isomer, unassigned) [Example 567, (*S)-3-(3-(Difluoromethyl)-8-methyl-[1,2,4]triazolo[4,3-a]pyridin-7-yl)-3-(3-((1′,1′-dioxidospiro[cyclopropane-1,4′-pyrido[2,3-b][1,4,5]oxathiazepin]-2′(3′H)-yl)methyl)-4-methylphenyl)-2,2-dimethylpropanoic Acid]",2.6 nM
2,"Cc1ccc([C@H](c2ccn3c(C(F)F)nnc3c2C)C(C)(C)C(=O)O)cc1CN1CC2(CC2)Oc2ncccc2S1(=O)=O (single isomer, unassigned) [Example 568, (*R)-3-(3-(Difluoromethyl)-8-methyl-[1,2,4]triazolo[4,3-a]pyridin-7-yl)-3-(3-((1′,1′-dioxidospiro[cyclopropane-1,4′-pyrido[2,3-b][1,4,5]oxathiazepin]-2′(3′H)-yl)methyl)-4-methylphenyl)-2,2-dimethylpropanoic Acid]",192 nM
3,"Cc1cnc([C@H](c2ccn3c(C(F)F)nnc3c2C)C(C)(C)C(=O)O)cc1CN1CC2(CC2)Oc2nc(OCCN3CCCCC3)c(C)cc2S1(=O)=O (single isomer, unassigned) [Example 637, (*R)-3-(3-(Difluoromethyl)-8-methyl-[1,2,4]triazolo[4,3-a]pyridin-7-yl)-2,2-dimethyl-3-(5-methyl-4-((8′-methyl-1′,1′-dioxido-7′-(2-(piperidin-1-yl)ethoxy)spiro[cyclopropane-1,4′-pyrido[2,3-b][1,4,5]oxathiazepin]-2′(3′H)-yl)methyl)pyridin-2-yl)propanoic Acid]",615 nM
4,"Cc1cnc([C@H](c2ccn3c(C(F)F)nnc3c2C)C(C)(C)C(=O)O)cc1CN1CC2(CCOCC2)Oc2nc(OCCN3CCCCC3)c(C)cc2S1(=O)=O (single isomer, unassigned) [Example 641, (*R)-3-(3-(Difluoromethyl)-8-methyl-[1,2,4]triazolo[4,3-a]pyridin-7-yl)-2,2-dimethyl-3-(5-methyl-4-((8′-methyl-1′,1′-dioxido-7′-(2-(piperidin-1-yl)ethoxy)-2,3,5,6-tetrahydrospiro[pyran-4,4′-pyrido[2,3-b][1,4,5]oxathiazepin]-2′(3′H)-yl)methyl)pyridin-2-yl)propanoic Acid]",2290 nM
5,"Cc1cnc2c(c1)S(=O)(=O)N(Cc1cc([C@@H](c3ccc4c(nnn4C4CC4)c3C)C(C)(C)C(=O)O)ccc1C)CC1(CNC1)O2 (single isomer, unassigned) [Example 646, (*S)-3-(1-Cyclopropyl-4-methyl-1H-benzo[d][1,2,3]triazol-5-yl)-2,2-dimethyl-3-(4-methyl-3-((8′-methyl-1′,1′-dioxidospiro[azetidine-3,4′-pyrido[2,3-b][1,4,5]oxathiazepin]-2′(3′H)-yl)methyl)phenyl)propanoic Acid]",66.7 nM
6,"Cc1ccc([C@@H](c2ccc3c(nnn3C3CC3)c2C)C(C)(C)C(=O)O)cc1CN1CC2(CCNCC2)Oc2ncccc2S1(=O)=O (single isomer, unassigned) [Example 648, (*S)-3-(1-Cyclopropyl-4-methyl-1H-benzo[d][1,2,3]triazol-5-yl)-3-(3-((1′,1′-dioxidospiro[piperidine-4,4′-pyrido[2,3-b][1,4,5]oxathiazepin]-2′(3′H)-yl)methyl)-4-methylphenyl)-2,2-dimethylpropanoic Acid]",1350 nM
7,"Cc1cnc2c(c1)S(=O)(=O)N(Cc1cc([C@@H](CC(=O)O)c3ccn4c(C(F)(F)F)nnc4c3C)ccc1Cl)CC1CCCCN21 (stereo in doubt) [Example 90, (*R)-3-(4-Chloro-3-(((*S)-3-methyl-5,5-dioxido-7,7a,8,9,10,11-hexahydro-6H-dipyrido[2,1-d:2′,3′-f][1,2,5]thiadiazepin-6-yl)methyl)phenyl)-3-(8-methyl-3-(trifluoromethyl)-[1,2,4]triazolo[4,3-a]pyridine-7-yl)propanoic Acid]",4.2 nM
8,"Cc1cnc2c(c1)S(=O)(=O)N(Cc1cc([C@H](CC(=O)O)c3ccn4c(C(F)F)nnc4c3C)ccc1C)C[C@@H]1CCCCN21 (stereo in doubt) [Example 500, (*S)-3-(3-(Difluoromethyl)-8-methyl-[1,2,4]triazolo[4,3-a]pyridin-7-yl)-3-(4-methyl-3-(((*S)-3-methyl-5,5-dioxido-7,7a,8,9,10,11-hexahydro-6H-dipyrido[2,1-d:2′,3′-f][1,2,5]thiadiazepin-6-yl)methyl)phenyl)propanoic Acid]",6.55 nM
9,"Cc1cnc2c(c1)S(=O)(=O)N(Cc1cc([C@@H](CC(=O)O)c3ccn4c(C(F)F)nnc4c3C)ccc1C)C[C@@H]1CCCCN21 (stereo in doubt) [Example 501, (*R)-3-(3-(Difluoromethyl)-8-methyl-[1,2,4]triazolo[4,3-a]pyridin-7-yl)-3-(4-methyl-3-(((*S)-3-methyl-5,5-dioxido-7,7a,8,9,10,11-hexahydro-6H-dipyrido[2,1-d:2′,3′-f][1,2,5]thiadiazepin-6-yl)methyl)phenyl)propanoic Acid]",34.5 nM
10,"Cc1cnc2c(c1)S(=O)(=O)N(Cc1cc(C(CC(=O)O)c3ccn4c(C(F)F)nnc4c3C)ccc1C)C[C@H]1CCCCN21 (stereo in doubt) [Example 502, 3-(3-(Difluoromethyl)-8-methyl-[1,2,4]triazolo[4,3-a]pyridin-7-yl)-3-(4-methyl-3-(((*R)-3-methyl-5,5-dioxido-7,7a,8,9,10,11-hexahydro-6H-dipyrido[2,1-d:2′,3′-f][1,2,5]thiadiazepin-6-yl)methyl)phenyl)propanoic Acid]",3.92 nM
11,"Cc1cnc2c(c1)S(=O)(=O)N(Cc1cc([C@H](CC(=O)O)c3ccn4c(C(F)F)nnc4c3C)ccc1C)C[C@H]1CCCCN21 (stereo in doubt) [Example 503, (*S)-3-(3-(Difluoromethyl)-8-methyl-[1,2,4]triazolo[4,3-a]pyridin-7-yl)-3-(4-methyl-3-(((*R)-3-methyl-5,5-dioxido-7,7a,8,9,10,11-hexahydro-6H-dipyrido[2,1-d:2′,3′-f][1,2,5]thiadiazepin-6-yl)methyl)phenyl)propanoic Acid]",2.58 nM
12,"Cc1cnc2c(c1)S(=O)(=O)N(Cc1cc([C@@H](CC(=O)O)c3ccn4c(C(F)F)nnc4c3C)ccc1C)C[C@H]1CCCCN21 (stereo in doubt) [Example 504, (*R)-3-(3-(Difluoromethyl)-8-methyl-[1,2,4]triazolo[4,3-a]pyridin-7-yl)-3-(4-methyl-3-(((*R)-3-methyl-5,5-dioxido-7,7a,8,9,10,11-hexahydro-6H-dipyrido[2,1-d:2′,3′-f][1,2,5]thiadiazepin-6-yl)methyl)phenyl)propanoic Acid]",7.22 nM
13,"CCn1nnc2c(C)c(C(c3ccc(C)c(CN4CC5(CCOCC5)Oc5ncccc5S4(=O)=O)c3)C(C)(C)C(=O)O)ccc21 (centres unmarked) [Example 14, 3-(3-((1′,1′-Dioxido-2,3,5,6-tetrahydrospiro[pyran-4,4′-pyrido[2,3-b][1,4,5]oxathiazepin]-2′(3′H)-yl)methyl)-4-methylphenyl)-3-(1-ethyl-4-methyl-1H-benzo[d][1,2,3]triazol-5-yl)-2,2-dimethylpropanoic Acid]",0.7 nM
14,"Cc1cnc2c(c1)S(=O)(=O)N(Cc1cc(C(c3ccn4c(C(F)(F)F)nnc4c3C)C(C)(C)C(=O)O)ccc1C)CC1(CCOCC1)O2 (centres unmarked) [Example 17, 2,2-Dimethyl-3-(4-methyl-3-((8′-methyl-1′,1′-dioxido-2,3,5,6-tetrahydrospiro[pyran-4,4′-pyrido[2,3-b][1,4,5]oxathiazepin]-2′(3′H)-yl)methyl)phenyl)-3-(8-methyl-3-(trifluoromethyl)-[1,2,4]triazolo[4,3-a]pyridin-7-yl)propanoic Acid]",3.6 nM
15,Cc1c(C(CC(=O)O)c2ccc(Cl)c(CN3CC4(COC4)Oc4ccccc4S3(=O)=O)c2)ccn2c(C(F)(F)F)nnc12 (centres unmarked) [Example 95],1080 nM
16,Cc1ccc(C(c2ccn3c(C(F)(F)F)nnc3c2C)C(C)(C)C(=O)O)cc1CN1CC2(CCOCC2)Oc2nc(NCCCO)ccc2S1(=O)=O (centres unmarked) [Example 114],145 nM
17,"Cc1cnc2c(c1)S(=O)(=O)N(Cc1cc(C(c3ccn4c(C(F)(F)F)nnc4c3C)C(C)(C)C(=O)O)ccc1C)CC1(CC1)O2 (centres unmarked) [Example 313, 2,2-Dimethyl-3-(4-methyl-3-((8′-methyl-1′,1′-dioxidospiro[cyclopropane-1,4′-pyrido[2,3-b][1,4,5]oxathiazepin]-2′(3′H)-yl)methyl)phenyl)-3-(8-methyl-3-(trifluoromethyl)-[1,2,4]triazolo[4,3-a]pyridin-7-yl)propanoic Acid]",1.1 nM
18,"Cc1ccc(C(c2ccn3c(C(F)(F)F)nnc3c2C)C(C)(C)C(=O)O)cc1CN1CC2(CC2)Oc2ncccc2S1(=O)=O (centres unmarked) [Example 316, 3-(3-((1′,1′-Dioxidospiro[cyclopropane-1,4′-pyrido[2,3-b][1,4,5]oxathiazepin]-2′(3′H)-yl)methyl)-4-methylphenyl)-2,2-dimethyl-3-(8-methyl-3-(trifluoromethyl)-[1,2,4]triazolo[4,3-a]pyridin-7-yl)propanoic Acid]",1.3 nM
19,"Cc1ccc(C(c2ccn3c(C(F)(F)F)nnc3c2)C(C)(C)C(=O)O)cc1CN1CC2(CCOCC2)Oc2ncccc2S1(=O)=O (centres unmarked) [Example 319, 3-(3-((1′,1′-Dioxido-2,3,5,6-tetrahydrospiro[pyran-4,4′-pyrido[2,3-b][1,4,5]oxathiazepin]-2′(3′H)-yl)methyl)-4-methylphenyl)-2,2-dimethyl-3-(3-(trifluoromethyl)-[1,2,4]triazolo[4,3-a]pyridin-7-yl)propanoic Acid]",44.5 nM
